Results: patent US5234822A, “Trypanosoma cruzi heparin-binding protein and antibodies thereto” (priority 1991, dated 1993)

How the values were obtained:
[1] = test system: E. coli XL-1 Blue with clone HBP-6 expressing penetrin, entering Vero cells; test: Penetrin-mediated entry of E. coli into Vero cells (gentamicin survival); type: cell-based, Escherichia coli; conditions: 250 μg/ml; for inhibition of penetration of bacteria: E. coli preincubated with inhibitor; for survival of bacteria after gentamicin: 4.3% without inhibitor
Protocol: E. coli expressing penetrin are able to enter nonphagocytic mammalian cells which normally exclude E. coli. […] Recombinant bacteria were grown overnight at 37°, washed twice in PBS, resuspended at 10^8 cells/ml, and aliquots of 2×10^7 E coli were added to monolayers of 2×10^5 Vero cells per microliter well in 1 ml of RPMI 1640 medium containing 1% BSA. Bacteria were centrifuged onto the cell monolayer, and the cultures were incubated at 37° for 3 h in a 5% CO2 /95% air atmosphere, washed three times with sterile PBS, and incubated for an additional 1.5 h at 37° C. in RPMI 1640 medium containing 1% BSA and 75 μg/ml gentamicin (to kill bacteria bound to outer membrane). The monolayers were then washed three times in sterile PBS, and lysed with 0.5% Triton X-100 in deionized water to release internalized bacteria, which were quantitated in agar plates.

[2] = test system: T. cruzi trypomastigotes adhering to glutaraldehyde-fixed Vero cells; test: Inhibition of trypomastigote binding to Vero cells; type: cell-based, Trypanosoma cruzi; conditions: trypomastigotes preincubated 30 min at 37° C., binding 60 min
Protocol: In these experiments attachment of trypomastigotes to Vero cell monolayers was measured as follows. Briefly, Vero cells were maintained in RPMI 1640 supplemented with heat-inactivated 1% Nu-serum (Collaborative Research Inc., Bedford, Mass.), penicillin (100 U/ml) and streptomycin ([…]). Unless noted otherwise, cells were maintained in plastic tissue culture flasks (150 cm^2, Bellco, Vineland, N.J.) and incubated at 37° C. in a humidified atmosphere containing 5% CO2 and 95% air. Cells were propagated every 1-2 weeks after trypsin-EDTA digestion (0.5 g trypsin, 0.2 g EDTA in HBSS without Ca^++ and Mg^++) in 16-well Lab-Tek® chamber slide™ (Nunc, Inc., Naperville, Ill.. Prior to binding experiments Vero cells were removed with trypsin and plated on 96-well tissue culture plates (Bellco, Vineland, N.J.) or in 16-well Lab-Tek® chamber slide™ at a density of 7.5×10^3 cells per well. After 24 h, the medium was removed, cells were washed twice with PBS, pH 7.2, and fixed for 5 min at 4° C. by addition of 2% glutaraldehyde (grade I, Sigma Chemical Co., St. Louis, Mo.) in PBS. Cell monolayers were washed twice with PBS, pH 7.2 and incubated overnight at 4° C. in 0.16M ethanolamine, pH 8.3 to block residual free […] amino groups. The next day, cell monolayers were washed three times with PBS as above, and two times with 1% BSA/RPMI-1640 and kept at least 1 h at 37° C. in the same medium.
Trypomastigotes, [^35 S]-labeled as described above, were added to the cell monolayers in a total volume of 100 μl/well and the plates were incubated for 1 h at 37° C. Each well was then washed five times with 100 μl prewarmed PBS (pH 7.2). The [^35 S] label was solubilized with 2M NaOH and the bound radioactivity was determined in a liquid scintillation counter. Alternatively, unlabeled trypomastigotes were added to wells of a 16-well Lab-Tek® chamber slide™ and incubated as above. After removing the plastic chamber, the slide was washed by dipping 5 times in PBS (pH 7.2) and immersed upside-down in 4% paraformaldehyde in PBS, containing 7% sucrose. Finally, the slide was rinsed with PBS, stained with Diff-Quik®and the number of bound T. cruzi were determined by counting under light microscopy. For inhibition studies, trypomastigotes were preincubated 30 min at 37° C. with the appropriate proteoglycan in 100 μl of 1% BSA-RPMI- 1640 before addition to cell monolayers. Binding was determined in triplicate at each inhibitor concentration and in the absence of inhibitor.
In this assay 100% binding was taken to 5 ×10^4 trypomastigotes/well bound in 60 min.

[3] = test system: T. cruzi trypomastigotes infecting Vero cells; test: Inhibition of T. cruzi infection of Vero cells; type: cell-based, Trypanosoma cruzi; conditions: for concentration causing 50% reduction of infection: FIG. 4, parasites preincubated 30 min, 2 h interaction, 3 days culture; for effect on infection: FIG. 4, even at high concentrations
Protocol: In these experiments, cultured Vero cells were released with trypsin/EDTA, plated at 7.5×10^3 cells/well in 16-well Lab-Tek® chamber slides™ for 24 h, and used for infection at ~75% confluence. Trypomastigotes were harvested, washed with serum-free RPMI containing 1% BSA, and mixed with various concentrations of proteoglycans. After 30 min at 37° C., 5×10^5 parasites in a total volume of 100 μl were added to each well containing subconfluent cultures of Vero cells and allowed to interact for 2 h at 37° C. At the end of the incubation time, cell monolayers were rinsed three times with serum-free medium, and further incubated in RPMI-1640 containing 1% Nu-serum for 3 days at 37° C. Finally, monolayers were washed, stained with Diff-Quik®, and examined under a microscope to estimate the ratio of infected (i.e., Vero cell containing more than one intracellular amastigote) to non-infected Vero cells. In order to establish if the inhibitory effect was due to interaction of heparin and heparan sulfate with trypomastigotes rather than to Vero cells, parasites or host cells were preincubated with the putative inhibitors, washed extensively, and assayed for infection as above.

T. cruzi trypomastigotes = test: Trypomastigote binding to heparin- or collagen-coated wells; type: cell-based, Trypanosoma cruzi; conditions: soluble compound
Protocol: Proteoglycans (dissolved in PBS) and collagen solubilized in 0.1N HCl and neutralized in PBS) were adsorbed onto plastic (Falcon 3912 polyvinylchloride 96-well microliter plates) by incubation overnight at 4° C. (Roberts et al., J. BioI. Chem. 264:9289, 1989). The unbound proteins were removed, the wells filled with 1% heat-treated BSA in PBS (56° C., 60 min and filtered in […] nitrocellulose filters to remove insoluble particles) and incubated for 1 h at room temperature. The wells were then washed twice with PBS (pH 7.2) and rinsed with RPMI 1640 containing 1% BSA. T. cruzi trypomastigotes, labeled with [^35 S] methionine, were resuspended in RPMI-BSA and 100 μl of the suspension was applied to the wells. After various periods of incubation at 37° C., the wells were carefully washed three times with 37° C. PBS (pH 7.2). T. cruzi bound to the plastic-bound proteoglycans were then solubilized with 100 μ l of 2 M NaOH, mixed with Ultrafluor (National Diagnostics, Manville, N.J.), and assayed by liquid scintillation counting. Referring to FIG. 1a, adherence of trypomastigotes to heparin-coated plates increased linearly with the length of incubation up to about 60 min. In a separate experiment trypomastigotes were added for 60 min, but the number added was varied. […] In contrast, non-specific binding to BSA-coated wells was less than 2%.

[4] = test system: T. cruzi penetrin (60 kD trypomastigote heparin-binding protein), column-purified; test: Binding of column-purified [125I]-labeled penetrin to heparin-Sepharose; set-up: species or system Trypanosoma cruzi; conditions: compound 100 μg/ml; Bovine Serum Albumin control 1.9
Protocol: To determine if [^125 I]-labeled penetrin was still active in binding extracellular matrix proteins after isolation by heparin affinity chromatography, rebinding and inhibition of rebinding to heparin-Sepharosebeads was performed. Briefly, column purified [^125 I]-labeled penetrin was incubated with or without compounds and mixed with 100 μl of heparin-Sepharose. The mixture was incubated at room temperature for 2 h under slow rocking. The slurry was then centrifuged (500× g, 5 min), washed three times with PBS, and bound radioactivity determined in a gamma counter. Referring to FIG. 7, in the absence of competitors, column-purified [^125 I]-labeled penetrin retained its ability to bind heparin-Sepharose.
For inhibition experiments, an aliquot of the purified heparin-binding protein was mixed with putative inhibitors for 1 h at room temperature, and the mixture added to 100 μl of heparin-Sepharose as above. The amount of [^125 I]-labeled protein retained by the agarose beads was assessed by elution of the protein with 1% SDS, SDS-polyacrylamide gel electrophoresis and autoradiography, and quantitated in a laser scanning densitometer (Pharmacia LKB, Ultroscan XL). One hundred percent binding was taken as the amount of protein retained by the heparin-Sepharose in the absence of added inhibitor. Referring to Table 2, adsorption of penetrin was inhibited by pre-incubation with soluble heparin, heparan sulfate or collagen, but not with other glycosaminoglycans (chondroitin sulfate and hyaluronic acid).

[5] = test system: T. cruzi penetrin (60 kD trypomastigote heparin-binding protein), column-purified; test: Binding of column-purified [125I]-labeled penetrin to fibroblasts (Vero cells); set-up: species or system Trypanosoma cruzi
Protocol: Binding of [^125 I]-labeled penetrin to Vero cells was assayed as follows. Vero cells, grown in multiwell plates to confluence as described above, were rinsed once with 1% BSA-RPMI-1640, and incubated at 37° C. with increasing concentrations of [^125 I]-labeled penetrin. After 1 h the medium was removed, cell monolayers were washed three times with PBS, solubilized with 100 μl of 2M NaOH, and the retained radioactivity measured in a gamma counter. For inhibition experiments, an aliquot of [^125 I]-labeled penetrin was preincubated with the potential inhibitors prior to adding to confluent cells, and processed as above.

Heparin
inhibition of penetration of bacteria [1]: 85%
survival of bacteria after gentamicin [1]: 0.6%
% Vero Cells with Trypomastigotes ([2]; inhibitor 125 μg/ml): 50%
% Vero Cells with Trypomastigotes ([2]; inhibitor 250 μg/ml): 12.5%
concentration causing 50% reduction of infection [3]: 100 µg/mL
inhibition of trypomastigote binding to coated wells (in words) (T. cruzi trypomastigotes): inhibited
Penetrin Bound [4]: 0.7 cpm × 10^-3
inhibition of binding of [125I]-labeled penetrin to Vero cell monolayers (in words) [5]: inhiited
% Inhibition of penetrin binding to fibroblasts ([5]; compound 5 μg/ml): 25%
% Inhibition of penetrin binding to fibroblasts ([5]; compound 25 μg/ml): 55%
% Inhibition of penetrin binding to fibroblasts ([5]; compound 50 μg/ml): 75%
% Inhibition of penetrin binding to fibroblasts ([5]; compound 100 μg/ml): 89%
% Inhibition of penetrin binding to fibroblasts ([5]; compound 250 μg/ml): 91%

Hyaluronic Acid
effect on E. coli entry (in words) [1]: without effect
% Vero Cells with Trypomastigotes ([2]; inhibitor 250 μg/ml): 98%
effect on infection [3]: little effect on infection
Penetrin Bound [4]: 1.8 cpm × 10^-3

Chondroitin Sulfate
effect on E. coli entry (in words) [1]: without effect
% Vero Cells with Trypomastigotes ([2]; inhibitor 250 μg/ml): 96%
effect on infection [3]: little effect on infection
Penetrin Bound [4]: 1.6 cpm × 10^-3
% Inhibition of penetrin binding to fibroblasts ([5]; compound 250 μg/ml): 12%

Heparan Sulfate
inhibition of penetration of bacteria [1]: 85%
survival of bacteria after gentamicin [1]: 0.6%
% Vero Cells with Trypomastigotes ([2]; inhibitor 125 μg/ml): 60%
% Vero Cells with Trypomastigotes ([2]; inhibitor 250 μg/ml): 18%
concentration causing 50% reduction of infection [3]: 1.5 µg/mL
inhibition of trypomastigote binding to coated wells (in words) (T. cruzi trypomastigotes): inhibited
Penetrin Bound [4]: 0.75 cpm × 10^-3
inhibition of binding of [125I]-labeled penetrin to Vero cell monolayers (in words) [5]: inhiited
% Inhibition of penetrin binding to fibroblasts ([5]; compound 250 μg/ml): 65%
